SMILES strings stand for the structures. The source made the active and inactive calls. No cut-off for these calls is given here. Residues, ends and D or L forms follow the SMILES beside them.

This passage reports Stability and Activity results from ChEMBL document CHEMBL3600367, “Anti-plasmodial activity of bradykinin and analogs” (Bioorg Med Chem Lett, 2015).

The nature of series [1]: Metabolic stability in plasma (unknown origin). Format: ADME, cell-free.
A further series deals with Plasmodium falciparum. As to the kind of experiment: Antiplasmodial activity against Plasmodium falciparum W2 schizonts infected in human erythrocytes assessed as appearance of intracellular ring forms at 10^-8 mol/L after 24 hrs by Diff quick staining-based light microscopic analysis. Format: functional, organism-based.
In the next series the test system is Plasmodium gallinaceum. As to the kind of experiment: Antiplasmodial activity against mature Plasmodium gallinaceum sporozoites isolated from Aedes aegypti RED assessed as increase in membrane permeability at 60 umol/L after 1 hr by propidium iodide staining-based inverted fluorescence microscopic analysis. The class given is functional.

For the compound `CC(C)C[C@@H](N)C(=O)N1CCC[C@@H]1C(=O)N[C@H](CO)C(=O)N[C@H](CCC(=O)O)C(=O)N[C@H](Cc1ccccc1)C(=O)N[C@H](CCCNC(=N)N)C(=O)N[C@@H](C(=O)N1CCC[C@@H]1C(=O)N[C@H](CC(C)C)C(=O)NCC(=O)N1CCC[C@@H]1C(=O)N[C@H](CCCNC(=N)N)C(N)=O)C(C)C`, the Stability entry in series [1] is listed as “Stable”. Further, the result in the series with Plasmodium falciparum was inactive. Moreover, the outcome in the series on Plasmodium gallinaceum was Active.

With `CC(C)C[C@@H](NC(=O)[C@H]1CCCN1C(=O)[C@H](NC(=O)[C@@H](CCCNC(=N)N)NC(=O)[C@@H](CO)NC(=O)[C@@H](Cc1ccccc1)NC(=O)[C@@H](CO)NC(=O)[C@H]1CCCN1C(=O)[C@@H](CC(C)C)NC(=O)[C@H](N)CCCNC(=N)N)C(C)C)C(=O)NCC(=O)N1CCC[C@@H]1C(=O)N1CCC[C@@H]1C(=O)N[C@H](CCCNC(=N)N)C(N)=O`, in series [1], the Stability entry is on record as “Stable”. In the series on Plasmodium falciparum, the outcome was inactive.

As for `CC(C)C[C@H](NC(=O)[C@@H]1CCCN1C(=O)[C@H](CO)NC(=O)[C@H](CCC(=O)O)NC(=O)[C@H](Cc1ccccc1)NC(=O)[C@H](CCCNC(=N)N)NC(=O)[C@@H](NC(=O)[C@@H]1CCCN1C(=O)[C@H](CC(C)C)NC(=O)CNC(=O)[C@@H]1CCCN1C(=O)[C@@H](N)CCCNC(=N)N)C(C)C)C(N)=O` (H-RPGLPVRFESPL-NH2), the outcome in the series with Plasmodium falciparum and in the series on Plasmodium gallinaceum was inactive.

Turning to `CC(C)C[C@H](NC(=O)[C@@H]1CCCN1C(=O)[C@H](CO)NC(=O)[C@H](Cc1ccccc1)NC(=O)[C@H](CO)NC(=O)[C@H](CCCNC(=N)N)NC(=O)[C@@H](NC(=O)[C@@H]1CCCN1C(=O)[C@H](CC(C)C)NC(=O)CNC(=O)[C@@H]1CCCN1C(=O)[C@@H]1CCCN1C(=O)[C@@H](N)CCCNC(=N)N)C(C)C)C(=O)N[C@@H](CCCNC(=N)N)C(N)=O` (H-RPPGLPVRSFSPLR-NH2), the outcome in the series with Plasmodium falciparum was inactive. The result with Plasmodium gallinaceum was Active.

Take `CC[C@H](C)[C@H](NC(=O)[C@H](Cc1ccc(O)cc1)NC(=O)[C@@H](NC(=O)[C@H](CCCNC(=N)N)NC(=O)[C@@H](N)CC(=O)O)C(C)C)C(=O)N[C@@H](Cc1cnc[nH]1)C(=O)N1CCC[C@H]1C(=O)N[C@@H](Cc1ccccc1)C(=O)O` [ANGIOTENSIN II]: the Activity with Plasmodium gallinaceum is listed as 88%.

In the case of `N=C(N)NCCC[C@H](NC(=O)[C@H](Cc1ccccc1)NC(=O)[C@@H]1CCCN1C(=O)[C@H](CO)NC(=O)[C@H](Cc1ccccc1)NC(=O)CNC(=O)[C@@H]1CCCN1C(=O)[C@@H]1CCCN1C(=O)[C@@H](N)CCCNC(=N)N)C(=O)O` [BRADYKININ] (H-RPPGFSPFR-OH), the result with Plasmodium falciparum was inactive. Moreover, in the series on Plasmodium gallinaceum, the Activity was 98%.
